The source of these data is patent publication US8580809B2, “Filamin A-binding anti-inflammatory analgesic” (Pain Therapeutics, Inc., priority 2009, dated 2013).

SMILES strings stand for the structures.

For this assay, the target named is T1, mu opiate receptor (MOR) (Rattus norvegicus, UniProt P33535).
T1 construct: from tissue; host or cells: rat striatal membrane preparation
Description: MOR agonist activity using [35S]GTPγS binding assay in striatal membranes. Format: biochemical. The settings on record: for MOR agonist activity, [35S]GTPγS binding to Gαo, FLNA-binding compound as agonist 0.1 μM: 0.1 μM compound; for MOR agonist activity, [35S]GTPγS binding to Gαo, FLNA-binding compound as agonist 0.1 μM / MOR agonist activity, [35S]GTPγS binding to Gαo, FLNA-binding compound as agonist 1 μM: striatal membranes; for MOR agonist activity, [35S]GTPγS binding to Gαo, 1 μM + BFNA: 1 μM compound + 1 μM β-funaltrexamine; for MOR agonist activity, [35S]GTPγS binding to Gαo, FLNA-binding compound as agonist 1 μM: 1 μM compound. How it is done:
To assess the mu opiate receptor (MOR) agonist activity of positive compounds from the FLNA screening, compounds were tested in a [^35S]GTPγS binding assay using striatal membranes.
Striatal tissue was homogenized in 10 volumes of ice cold 25 mM HEPES buffer, pH 7.4, which contained 1 mM EGTA, 100 mM sucrose, 50 μg/ml leupeptin, 0.04 mM PMSF, 2 μg/ml soybean trypsin inhibitor and 0.2% 2-mercaptoethanol. The homogenates were centrifuged at 800×g for 5 minutes and the supernatants were centrifuged at 49,000×g for 20 minutes.
The resultant striatal membrane preparation (200 μg) was admixed and maintained (incubated) at 30° C. for 5 minutes in reaction buffer as above that additionally contained 1 mM MgCl2 and 0.5 nM [^35S]GTPγS (0.1 μCi/assay, PerkinElmer Life and Analytical Sciences) in a total volume of 250 μl and continued for 5 minutes in the absence or presence of 0.1-10 μM of an assayed compound of interest. The reaction was terminated by dilution with 750 μl of ice-cold reaction buffer that contained 20 mM MgCl2 and 1 mM EGTA and immediate centrifugation at 16,000×g for 5 minutes.
The resulting pellet was solubilized by sonicating for 10 seconds in 0.5 ml of immunoprecipitation buffer containing 0.5% digitonin, 0.2% sodium cholate and 0.5% NP-40. Normal rabbit serum (1 μl) was added to 1 ml of lysate and incubated at 25° C. for 30 minutes. Nonspecific immune complexes were removed by incubation with 25 μl of protein A/G-conjugated agarose beads at 25° C. for 30 minutes followed by centrifugation at 5,000×g at 4° C. for 5 minutes. The supernatant was divided and separately incubated at 25° C. for 30 minutes with antibodies raised against Gαo proteins (1:1,000 dilutions).
The immunocomplexes so formed were collected by incubation at 25° C. for 30 minutes with 40 μl of agarose-conjugated protein A/G beads and centrifugation at 5,000×g at 4° C. for 5 minutes. The pellet was washed and suspended in buffer containing 50 mM Tris-HCl, pH 8.0, and 1% NP-40. The radioactivity in the suspension was determined by liquid scintillation spectrometry. […] DAMGO (H-Tyr-D-Ala-Gly-N-MePhe-Gly-OH; 1 or 10 μM) was used as a positive control.
In general terms: Binding of GTPγS marks nucleotide exchange on a G protein.

T1 sequence (P33535 whole entry): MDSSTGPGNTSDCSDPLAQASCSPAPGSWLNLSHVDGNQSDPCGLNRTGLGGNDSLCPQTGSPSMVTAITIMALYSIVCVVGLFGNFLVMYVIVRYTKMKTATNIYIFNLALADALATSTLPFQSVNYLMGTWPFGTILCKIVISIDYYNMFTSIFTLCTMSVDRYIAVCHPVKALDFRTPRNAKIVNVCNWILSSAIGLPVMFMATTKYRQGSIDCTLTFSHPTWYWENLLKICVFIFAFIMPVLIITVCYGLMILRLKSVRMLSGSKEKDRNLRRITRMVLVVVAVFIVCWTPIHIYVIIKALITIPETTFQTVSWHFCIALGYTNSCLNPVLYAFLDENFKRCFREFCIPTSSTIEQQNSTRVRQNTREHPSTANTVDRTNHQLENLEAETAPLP

With `CC(=O)c1ccc(C(=O)N2CCC3(CC2)OCCN3C(=O)c2ccc(C(C)=O)cc2)cc1` [Compound C0054], the “MOR agonist activity, [35S]GTPγS binding to Gαo, FLNA-binding compound as agonist 0.1 μM” value (from here on “MOR agonist activity … as agonist 0.1 μM”) is reported as 68.2%; the “MOR agonist activity, [35S]GTPγS binding to Gαo, 1 μM + BFNA” value (shortened to “MOR agonist activity … 1 μM + BFNA”) was found to be 43.5%; the “MOR agonist activity, [35S]GTPγS binding to Gαo, FLNA-binding compound as agonist 1 μM” value (from here on “MOR agonist activity … as agonist 1 μM”) is given as 127.0%.
In the same order, the values of `CC(=O)c1ccc(S(=O)(=O)N2CCC3(CC2)OCC(CCCCN(C)C)N3S(=O)(=O)c2ccc(C(C)=O)cc2)cc1` (stereo not drawn) [Compound C0080M] are 187.9%, 167.1% and 205.4%.
In the same order, the values of `O=S(=O)(c1ccc(OC(F)(F)F)cc1)N1CCC2(CC1)OCCN2S(=O)(=O)c1ccc(OC(F)(F)F)cc1` [Compound C0006] are 121.5%, 4.6% and 204.0%.
The matching figures for `CC(=O)c1ccc(S(=O)(=O)N2CCC3(CC2)NC(=O)CN3S(=O)(=O)c2ccc(C(C)=O)cc2)cc1` [Compound C0064]: 213.8%, 38.1% and 349.6%.
On to `COc1ccc(C(=O)N2CCC3(CC2)OCCN3S(=O)(=O)c2ccc(OC)cc2)cc1` [Compound C0018], for which the “MOR agonist activity … as agonist 0.1 μM” value came to 195.5%; the “MOR agonist activity … 1 μM + BFNA” value is 106.5%; the “MOR agonist activity … as agonist 1 μM” value is recorded as 247.7%.
`O=S(=O)(c1ccc(C(F)(F)F)cc1)N1CCC2(CC1)OCCN2S(=O)(=O)c1ccc(C(F)(F)F)cc1` [Compound C0012]: the “MOR agonist activity … as agonist 0.1 μM” value turned out to be 96.8%; the “MOR agonist activity … 1 μM + BFNA” value amounted to 184.4%; the “MOR agonist activity … as agonist 1 μM” value was 224.8%.
The matching figures for `O=S(=O)(c1ccc(-c2ccccc2)cc1)N1CCC2(CC1)OCCN2S(=O)(=O)c1ccc(-c2ccccc2)cc1` [Compound C0010]: 136.5%, 89.1% and 307.0%.
The matching figures for `O=S(=O)(c1ccc(F)cc1)N1CCC2(CC1)OCCN2S(=O)(=O)c1ccc(F)cc1` [Compound C0029]: 175.4%, 16.6% and 308.8%.
The matching figures for `CNc1ccc(S(=O)(=O)N2CCC3(CC2)OCCN3S(=O)(=O)c2ccc(NC)cc2)cc1` [Compound C0024]: 178.4%, 59.3% and 229.6%.
In the case of `O=S(=O)(c1cccc2cccnc12)N1CCC2(CC1)OCCN2S(=O)(=O)c1cccc2cccnc12` [Compound C0143M], the “MOR agonist activity … as agonist 0.1 μM” value is given as 81.0%; the “MOR agonist activity … 1 μM + BFNA” value turned out to be 86.5%; the “MOR agonist activity … as agonist 1 μM” value turned out to be 193.3%.
In the same order, the values of `O=C(OCc1ccccc1)c1ccc(S(=O)(=O)N2CCC3(CC2)OCCN3S(=O)(=O)c2ccc(C(=O)OCc3ccccc3)cc2)cc1` [Compound C0042] are 167.1%, 110.6% and 260.9%.
Regarding `COc1ccc(NC(=O)N2CCC3(CC2)OCCN3C(=O)Nc2ccc(OC)cc2)cc1` [Compound C0151M], the “MOR agonist activity … as agonist 0.1 μM” value was determined as 346.8%; the “MOR agonist activity … 1 μM + BFNA” value was 212.8%; the “MOR agonist activity … as agonist 1 μM” value came to 397.6%.
Turning to `CC(O)c1ccc(S(=O)(=O)N2CCC3(CC2)OCCN3S(=O)(=O)c2ccc(C(C)O)cc2)cc1` (stereo not drawn) [Compound C0051], the “MOR agonist activity … as agonist 0.1 μM” value is recorded as 94.4%; the “MOR agonist activity … 1 μM + BFNA” value turned out to be 55.9%; the “MOR agonist activity … as agonist 1 μM” value was 170.4%.
The matching figures for `COc1ccc(S(=O)(=O)N2CCC3(CC2)OCCN3S(=O)(=O)c2ccc(OC)cc2)cc1` [Compound 7866]: 152.3%, 62.4% and 308.2%.
Regarding `COc1ccc(C(=O)N2CCOC23CCN(S(=O)(=O)c2ccc(OC)cc2)CC3)cc1` [Compound C0019], the “MOR agonist activity … as agonist 0.1 μM” value was 104.4%; the “MOR agonist activity … 1 μM + BFNA” value amounted to 52.8%; the “MOR agonist activity … as agonist 1 μM” value is listed as 176.6%.
The matching figures for `O=C(c1ccc([N+](=O)[O-])cc1)N1CCC2(CC1)OCCN2C(=O)c1ccc([N+](=O)[O-])cc1` [Compound C0032]: 145.4%, 80.9% and 202.0%.
Consider `CC(=O)Nc1ccc(S(=O)(=O)N2CCC3(CC2)OCCN3S(=O)(=O)c2ccc(NC(C)=O)cc2)cc1` [Compound C0013], for which the “MOR agonist activity … as agonist 0.1 μM” value is 156.6%; the “MOR agonist activity … 1 μM + BFNA” value was 39.6%; the “MOR agonist activity … as agonist 1 μM” value is recorded as 301.2%.
Regarding `CC(=O)c1ccc(C(=O)N2CCOC23CCN(S(=O)(=O)c2ccc(C(C)=O)cc2)CC3)cc1` [Compound C0053], the “MOR agonist activity … as agonist 0.1 μM” value is reported as 104.0%; the “MOR agonist activity … 1 μM + BFNA” value came to 93.1%; the “MOR agonist activity … as agonist 1 μM” value was 157.2%.
For the compound `COc1ccc(S(=O)(=O)N2CCC3(CC2)OCCN3S(=O)(=O)c2ccc(C(C)=O)cc2)cc1` [Compound C0048], the “MOR agonist activity … as agonist 0.1 μM” value is on record as 209.1%; the “MOR agonist activity … 1 μM + BFNA” value is given as 89.9%; the “MOR agonist activity … as agonist 1 μM” value came out at 245.3%.
For `COc1ccc(NC(=O)N2CCC3(CC2)OCCN3S(=O)(=O)c2ccc(OC)cc2)cc1` [Compound C0041], the “MOR agonist activity … as agonist 0.1 μM” value stood at 186.1%; the “MOR agonist activity … 1 μM + BFNA” value is 95.5%; the “MOR agonist activity … as agonist 1 μM” value amounted to 244.4%.
As to `Cc1cccc(S(=O)(=O)N2CCC3(CC2)OCCN3S(=O)(=O)c2cccc(C)c2)c1` [Compound C0014], the “MOR agonist activity … as agonist 0.1 μM” value worked out at 144.9%; the “MOR agonist activity … 1 μM + BFNA” value was 76.3%; the “MOR agonist activity … as agonist 1 μM” value was found to be 153.5%.
The matching figures for `CCCCc1ccc(S(=O)(=O)N2CCC3(CC2)OCCN3S(=O)(=O)c2ccc(CCCC)cc2)cc1` [Compound C0030]: 150.3%, 95.0% and 226.8%.
In the same order, the values of `N#Cc1ccc(S(=O)(=O)N2CCC3(CC2)OCCN3S(=O)(=O)c2ccc(C#N)cc2)cc1` [Compound C0008] are 71.2%, 2.8% and 201.6%.
The matching figures for `COc1cc(S(=O)(=O)N2CCC3(CC2)OCCN3S(=O)(=O)c2cc(OC)c(OC)c(OC)c2)cc(OC)c1OC` [Compound C0062]: 127.8%, 59.8% and 310.5%.
Take `O=S(=O)(c1ccc(Br)cc1Br)N1CCC2(CC1)OCCN2S(=O)(=O)c1ccc(Br)cc1Br` [Compound C0070]: the “MOR agonist activity … as agonist 0.1 μM” value was 165.6%; the “MOR agonist activity … 1 μM + BFNA” value worked out at 114.2%; the “MOR agonist activity … as agonist 1 μM” value is 210.8%.
